In the NIST ThermoML archive (doi:10.1021/je200757a):

Experiments:
[1] = refractive index (Na D-line) (dimensionless); xn = mol fraction of the nth substance listed; conditions: 101 kPa, Liquid
[2] = xn = mol fraction of the nth substance listed; conditions: for surface tension liquid-gas: Capillary rise; for viscosity / mass density: 101 kPa, Liquid; for viscosity: Capillary tube (Ostwald / Ubbelohde) method; for mass density: Vibrating tube method

C1C[C@@H]2[C@H]3CC[C@H](C3)[C@@H]2C1 [exo-tetrahydrodicyclopentadiene] + CCCCCCCCC
Conditions	mass density, [2] [kg/m3]	refractive index, [1]	surface tension liquid-gas, [2] [mN/m]	viscosity, [2] [mPa·s]
293.15 K, x2 = 0	935.3	1.4877	31.86	3.077
293.15 K, x2 = 0.1089	907.6	1.4777	30.17	2.455
293.15 K, x2 = 0.2212	880.1	1.4667	27.92	2.005
293.15 K, x2 = 0.3244	855.8	1.457	27.12	1.683
293.15 K, x2 = 0.4159	835.1	1.45	26.34	1.459
293.15 K, x2 = 0.5099	814.5	1.4422	25.59	1.277
293.15 K, x2 = 0.6161	792	1.4332	24.35	1.109
293.15 K, x2 = 0.7128	772.3	1.426	23.84	0.985
293.15 K, x2 = 0.8078	753.7	1.4192	23.14	0.887
293.15 K, x2 = 0.9133	733.7	1.4114	22.6	0.795
298.15 K, x2 = 0	931.4	–	–	2.784
298.15 K, x2 = 0.1089	903.7	–	–	2.229
298.15 K, x2 = 0.2212	876.2	–	–	1.836
298.15 K, x2 = 0.3244	851.9	–	–	1.545
298.15 K, x2 = 0.4159	831.2	–	–	1.344
298.15 K, x2 = 0.5099	810.6	–	–	1.176
298.15 K, x2 = 0.6161	788.1	–	–	1.028
298.15 K, x2 = 0.7128	768.4	–	–	0.917
298.15 K, x2 = 0.8078	749.8	–	–	0.827
298.15 K, x2 = 0.9133	729.8	–	–	0.744
303.15 K, x2 = 0	927.5	1.4832	31.09	2.525
303.15 K, x2 = 0.1089	899.8	1.4728	29.01	2.04
303.15 K, x2 = 0.2212	872.3	1.4627	27.45	1.687
303.15 K, x2 = 0.3244	848	1.4517	26.63	1.426
303.15 K, x2 = 0.4159	827.2	1.445	25.74	1.244
303.15 K, x2 = 0.5099	806.6	1.4377	24.86	1.091
303.15 K, x2 = 0.6161	784.2	1.4282	23.36	0.958
303.15 K, x2 = 0.7128	764.5	1.421	22.88	0.856
303.15 K, x2 = 0.8078	745.9	1.4139	22.39	0.775
303.15 K, x2 = 0.9133	725.9	1.4062	21.81	0.699
313.15 K, x2 = 0	919.6	–	–	2.112
313.15 K, x2 = 0.1089	891.9	–	–	1.728
313.15 K, x2 = 0.2212	864.4	–	–	1.441
313.15 K, x2 = 0.3244	840.1	–	–	1.227
313.15 K, x2 = 0.4159	819.4	–	–	1.077
313.15 K, x2 = 0.5099	798.8	–	–	0.951
313.15 K, x2 = 0.6161	776.3	–	–	0.839
313.15 K, x2 = 0.7128	756.7	–	–	0.754
313.15 K, x2 = 0.8078	738	–	–	0.686
313.15 K, x2 = 0.9133	718.1	–	–	0.622
